What is called inhibition is the share of the control response that was lost under treatment. A higher inhibition goes with strong suppression. In general, Ki refers to a dissociation constant, usually derived from enzyme kinetics or from competition with a known ligand. The low end stands for higher affinity, the high end for lower affinity.

The target in experiment [1] is 5-hydroxytryptamine receptor 2A (Homo sapiens) (UniProt P28223). The experiment in a line: Inhibition of 5-HT2A receptor at 10 uM.
For experiment [2], the target named is 5-hydroxytryptamine receptor 1E (Homo sapiens) (UniProt P28566). The experiment in a line: Inhibition of 5HT1E receptor at 10 uM.
Experiment [3] concerns the target Mu-type opioid receptor (Homo sapiens) (UniProt P35372). The experiment in a line: Inhibition of mu opioid receptor at 10 uM.
The target in experiment [4] is D(2) dopamine receptor (Homo sapiens) (UniProt P14416). The experiment in a line: Inhibition of D2 dopamine receptor at 10 uM.
The target in experiment [5] is T1, Delta-type opioid receptor (Homo sapiens, UniProt P41143). The experiment in a line: Inhibition of delta opioid receptor.
For experiment [6], the target named is T2, 5-hydroxytryptamine receptor 2C (Homo sapiens) (UniProt P28335).
T2 sequence (whole entry): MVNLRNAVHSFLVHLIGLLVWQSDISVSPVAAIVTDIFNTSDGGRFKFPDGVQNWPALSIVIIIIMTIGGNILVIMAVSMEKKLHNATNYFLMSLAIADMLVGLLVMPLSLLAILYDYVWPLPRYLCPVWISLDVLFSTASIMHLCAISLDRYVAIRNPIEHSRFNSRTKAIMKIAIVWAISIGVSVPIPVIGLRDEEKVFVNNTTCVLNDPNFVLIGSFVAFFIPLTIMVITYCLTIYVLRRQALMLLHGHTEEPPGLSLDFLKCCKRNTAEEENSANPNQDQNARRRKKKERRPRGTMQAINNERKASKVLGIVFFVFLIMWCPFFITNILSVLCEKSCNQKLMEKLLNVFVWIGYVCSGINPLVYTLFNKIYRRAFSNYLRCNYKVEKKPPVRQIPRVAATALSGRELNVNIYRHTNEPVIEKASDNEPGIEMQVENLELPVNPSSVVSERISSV
The experiment in a line: Inhibition of 5-HT2C receptor at 10 uM.

The target of experiment [7] is 5-hydroxytryptamine receptor 2B (Homo sapiens, UniProt P41595). The experiment can be described thus: Inhibition of 5-HT2B receptor at 10 uM.
In experiment [8] the target is Beta-1 adrenergic receptor (Homo sapiens) (UniProt P08588). The experiment in a line: Inhibition of beta-1 adrenergic receptor at 10 uM.
The target of experiment [9] is T3, Muscarinic acetylcholine receptor M5 (Homo sapiens) (UniProt P08912).
T3 sequence (whole entry): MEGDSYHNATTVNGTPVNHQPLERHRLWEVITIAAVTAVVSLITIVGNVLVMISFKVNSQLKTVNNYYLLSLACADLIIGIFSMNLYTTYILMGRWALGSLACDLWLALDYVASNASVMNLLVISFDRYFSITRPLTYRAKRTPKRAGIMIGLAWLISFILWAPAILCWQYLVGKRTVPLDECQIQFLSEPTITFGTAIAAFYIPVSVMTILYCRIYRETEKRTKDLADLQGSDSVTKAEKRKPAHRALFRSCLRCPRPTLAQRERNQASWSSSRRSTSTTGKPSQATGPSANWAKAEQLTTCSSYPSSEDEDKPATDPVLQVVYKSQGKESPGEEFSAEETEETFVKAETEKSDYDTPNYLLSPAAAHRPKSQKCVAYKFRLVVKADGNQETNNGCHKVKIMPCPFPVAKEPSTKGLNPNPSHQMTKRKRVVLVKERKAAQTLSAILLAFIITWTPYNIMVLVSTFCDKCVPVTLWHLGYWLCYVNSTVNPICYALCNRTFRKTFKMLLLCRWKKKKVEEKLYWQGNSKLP
The experiment in a line: Inhibition of M5 muscarinic receptor at 10 uM.

The target of experiment [10] is Beta-3 adrenergic receptor (Homo sapiens) (UniProt P13945). The experiment can be described thus: Inhibition of beta3 adrenergic receptor at 10 uM.
The target of experiment [11] is T4, Muscarinic acetylcholine receptor M4 (Homo sapiens) (UniProt P08173).
T4 sequence (whole entry): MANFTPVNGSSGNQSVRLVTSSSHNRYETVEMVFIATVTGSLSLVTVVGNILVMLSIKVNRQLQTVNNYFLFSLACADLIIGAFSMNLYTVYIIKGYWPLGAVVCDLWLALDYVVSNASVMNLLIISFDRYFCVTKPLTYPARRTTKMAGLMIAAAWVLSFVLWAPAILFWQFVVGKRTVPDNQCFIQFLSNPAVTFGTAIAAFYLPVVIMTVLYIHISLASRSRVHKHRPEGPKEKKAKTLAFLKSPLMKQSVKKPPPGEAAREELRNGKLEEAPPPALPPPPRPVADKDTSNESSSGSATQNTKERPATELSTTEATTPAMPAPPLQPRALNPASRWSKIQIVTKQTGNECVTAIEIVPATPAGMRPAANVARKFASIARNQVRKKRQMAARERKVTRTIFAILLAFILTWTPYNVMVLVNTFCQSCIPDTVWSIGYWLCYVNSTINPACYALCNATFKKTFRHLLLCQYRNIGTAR
The experiment in a line: Inhibition of M4 muscarinic receptor at 10 uM.

Experiment [12] concerns the target Histamine H3 receptor (Homo sapiens) (UniProt Q9Y5N1). The experiment in a line: Inhibition of H3 receptor at 10 uM.
The target of experiment [13] is Sodium-dependent noradrenaline transporter (Homo sapiens) (UniProt P23975). The experiment can be described thus: Inhibition of norepinephrine receptor at 10 uM.
Experiment [14] deals with Histamine H2 receptor (Homo sapiens) (UniProt P25021). The experiment in a line: Inhibition of H2 receptor at 10 uM.
Experiment [15] has as its target D(1A) dopamine receptor (Homo sapiens) (UniProt P21728). The experiment in a line: Inhibition of D1 dopamine receptor at 10 uM.
The target of experiment [16] is Muscarinic acetylcholine receptor M3 (Homo sapiens) (UniProt P20309). The experiment in a line: Inhibition of M3 muscarinic receptor at 10 uM.
Experiment [17] has as its target 5-hydroxytryptamine receptor 1B (Homo sapiens, UniProt P28222). The experiment in a line: Inhibition of 5-HT1B receptor.
Experiment [18] concerns the target T1, Delta-type opioid receptor. The experiment can be described thus: Inhibition of delta opioid receptor at 10 uM.
In experiment [19] the target is Kappa-type opioid receptor (Homo sapiens, UniProt P41145). The experiment in a line: Inhibition of kappa opioid receptor at 10 uM.
Experiment [20] deals with T5, Alpha-1B adrenergic receptor (Homo sapiens) (UniProt P35368).
T5 sequence (whole entry): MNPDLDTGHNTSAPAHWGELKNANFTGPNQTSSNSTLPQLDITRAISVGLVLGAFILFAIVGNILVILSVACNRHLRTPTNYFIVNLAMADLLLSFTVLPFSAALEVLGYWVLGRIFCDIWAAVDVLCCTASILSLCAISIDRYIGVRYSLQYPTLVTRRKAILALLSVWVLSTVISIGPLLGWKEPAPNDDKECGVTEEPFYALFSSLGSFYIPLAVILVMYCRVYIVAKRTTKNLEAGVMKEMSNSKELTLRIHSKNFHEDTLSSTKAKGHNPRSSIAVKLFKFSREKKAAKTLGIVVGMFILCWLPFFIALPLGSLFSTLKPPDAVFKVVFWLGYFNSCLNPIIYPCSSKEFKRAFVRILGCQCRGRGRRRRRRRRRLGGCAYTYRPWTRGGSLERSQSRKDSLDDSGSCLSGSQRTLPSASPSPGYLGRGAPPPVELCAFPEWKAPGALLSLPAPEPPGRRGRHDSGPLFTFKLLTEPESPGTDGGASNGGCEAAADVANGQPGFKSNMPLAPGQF
The experiment in a line: Inhibition of Alpha-1B adrenergic receptor at 10 uM.

Sequence of Muscarinic acetylcholine receptor M3 (Homo sapiens) (P20309 whole entry, looked up): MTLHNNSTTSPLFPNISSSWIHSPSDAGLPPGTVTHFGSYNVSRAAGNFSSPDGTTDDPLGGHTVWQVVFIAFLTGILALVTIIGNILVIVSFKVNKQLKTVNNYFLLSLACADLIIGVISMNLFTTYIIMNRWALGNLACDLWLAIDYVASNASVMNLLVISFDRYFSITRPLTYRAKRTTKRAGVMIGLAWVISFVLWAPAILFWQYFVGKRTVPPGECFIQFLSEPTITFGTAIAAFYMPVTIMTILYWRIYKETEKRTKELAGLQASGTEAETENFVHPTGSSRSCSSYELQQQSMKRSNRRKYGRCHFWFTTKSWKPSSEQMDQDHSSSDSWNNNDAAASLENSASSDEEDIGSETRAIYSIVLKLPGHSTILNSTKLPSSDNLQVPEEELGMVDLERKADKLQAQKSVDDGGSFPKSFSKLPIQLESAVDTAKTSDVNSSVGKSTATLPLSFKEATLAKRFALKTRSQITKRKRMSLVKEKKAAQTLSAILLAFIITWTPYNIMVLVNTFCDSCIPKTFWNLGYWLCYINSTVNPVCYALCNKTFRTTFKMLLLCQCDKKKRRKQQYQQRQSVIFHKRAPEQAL
Sequence of Sodium-dependent noradrenaline transporter (Homo sapiens) (P23975 whole entry): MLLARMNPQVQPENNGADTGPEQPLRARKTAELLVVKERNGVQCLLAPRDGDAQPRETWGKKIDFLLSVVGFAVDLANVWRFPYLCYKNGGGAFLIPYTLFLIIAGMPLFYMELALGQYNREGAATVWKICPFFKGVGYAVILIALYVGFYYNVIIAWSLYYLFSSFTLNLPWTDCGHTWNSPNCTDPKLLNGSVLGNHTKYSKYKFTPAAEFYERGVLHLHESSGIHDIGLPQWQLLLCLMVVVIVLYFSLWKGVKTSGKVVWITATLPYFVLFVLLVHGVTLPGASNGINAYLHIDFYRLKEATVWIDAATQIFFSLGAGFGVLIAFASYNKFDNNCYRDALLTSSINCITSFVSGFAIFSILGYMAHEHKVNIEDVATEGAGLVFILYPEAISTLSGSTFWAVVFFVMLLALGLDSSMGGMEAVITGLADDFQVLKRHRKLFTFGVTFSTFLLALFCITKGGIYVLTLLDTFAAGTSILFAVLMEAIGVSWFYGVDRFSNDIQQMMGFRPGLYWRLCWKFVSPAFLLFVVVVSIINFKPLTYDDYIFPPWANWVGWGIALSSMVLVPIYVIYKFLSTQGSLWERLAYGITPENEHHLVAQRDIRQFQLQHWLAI
Sequence of Beta-3 adrenergic receptor (Homo sapiens) (P13945 whole entry, looked up): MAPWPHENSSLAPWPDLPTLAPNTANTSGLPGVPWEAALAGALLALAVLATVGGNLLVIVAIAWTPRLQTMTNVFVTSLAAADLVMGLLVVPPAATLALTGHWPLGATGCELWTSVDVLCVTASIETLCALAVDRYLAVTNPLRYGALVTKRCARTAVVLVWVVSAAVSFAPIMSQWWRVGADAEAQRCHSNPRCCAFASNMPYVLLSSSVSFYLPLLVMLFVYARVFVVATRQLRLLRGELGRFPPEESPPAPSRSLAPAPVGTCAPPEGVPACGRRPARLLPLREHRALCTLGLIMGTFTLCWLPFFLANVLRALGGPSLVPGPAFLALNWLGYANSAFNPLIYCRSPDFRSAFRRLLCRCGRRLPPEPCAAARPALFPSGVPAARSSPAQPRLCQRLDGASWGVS
Sequence of D(1A) dopamine receptor (Homo sapiens) (P21728 whole entry): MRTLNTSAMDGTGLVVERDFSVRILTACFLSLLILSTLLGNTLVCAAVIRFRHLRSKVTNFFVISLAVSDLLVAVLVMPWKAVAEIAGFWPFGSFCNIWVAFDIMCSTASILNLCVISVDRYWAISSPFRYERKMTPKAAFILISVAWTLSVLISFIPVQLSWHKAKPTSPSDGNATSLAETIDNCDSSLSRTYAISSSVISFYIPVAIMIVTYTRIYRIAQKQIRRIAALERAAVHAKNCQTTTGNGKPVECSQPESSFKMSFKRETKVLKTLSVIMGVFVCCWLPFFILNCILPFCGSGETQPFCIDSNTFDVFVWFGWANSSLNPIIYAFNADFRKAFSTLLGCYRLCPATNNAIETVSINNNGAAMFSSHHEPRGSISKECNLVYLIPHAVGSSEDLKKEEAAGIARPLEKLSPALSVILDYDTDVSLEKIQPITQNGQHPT
Sequence of 5-hydroxytryptamine receptor 1E (Homo sapiens) (P28566 whole entry): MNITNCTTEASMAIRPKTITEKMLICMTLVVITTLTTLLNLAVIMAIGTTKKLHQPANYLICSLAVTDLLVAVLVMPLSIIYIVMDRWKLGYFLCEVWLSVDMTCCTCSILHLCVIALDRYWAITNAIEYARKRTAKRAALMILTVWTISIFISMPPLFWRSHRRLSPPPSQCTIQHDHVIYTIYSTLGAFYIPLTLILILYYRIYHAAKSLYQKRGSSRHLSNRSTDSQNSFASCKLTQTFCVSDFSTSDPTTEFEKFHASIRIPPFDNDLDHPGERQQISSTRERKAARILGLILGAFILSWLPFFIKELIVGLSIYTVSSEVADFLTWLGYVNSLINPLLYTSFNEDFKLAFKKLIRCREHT
Sequence of 5-hydroxytryptamine receptor 2A (Homo sapiens) (P28223 whole entry): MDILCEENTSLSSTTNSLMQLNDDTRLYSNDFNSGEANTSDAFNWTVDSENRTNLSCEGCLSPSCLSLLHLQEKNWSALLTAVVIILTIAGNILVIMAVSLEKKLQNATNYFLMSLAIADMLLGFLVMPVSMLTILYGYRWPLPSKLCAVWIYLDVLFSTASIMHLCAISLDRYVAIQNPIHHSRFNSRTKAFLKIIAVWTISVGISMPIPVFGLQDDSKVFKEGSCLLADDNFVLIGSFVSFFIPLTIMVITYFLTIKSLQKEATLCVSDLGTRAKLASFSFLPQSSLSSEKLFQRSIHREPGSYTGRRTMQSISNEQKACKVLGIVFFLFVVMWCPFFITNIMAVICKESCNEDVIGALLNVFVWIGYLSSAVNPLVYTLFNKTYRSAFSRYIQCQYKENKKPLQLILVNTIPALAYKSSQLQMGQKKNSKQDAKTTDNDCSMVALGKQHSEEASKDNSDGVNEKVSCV
Sequence of Histamine H2 receptor (Homo sapiens) (P25021 whole entry): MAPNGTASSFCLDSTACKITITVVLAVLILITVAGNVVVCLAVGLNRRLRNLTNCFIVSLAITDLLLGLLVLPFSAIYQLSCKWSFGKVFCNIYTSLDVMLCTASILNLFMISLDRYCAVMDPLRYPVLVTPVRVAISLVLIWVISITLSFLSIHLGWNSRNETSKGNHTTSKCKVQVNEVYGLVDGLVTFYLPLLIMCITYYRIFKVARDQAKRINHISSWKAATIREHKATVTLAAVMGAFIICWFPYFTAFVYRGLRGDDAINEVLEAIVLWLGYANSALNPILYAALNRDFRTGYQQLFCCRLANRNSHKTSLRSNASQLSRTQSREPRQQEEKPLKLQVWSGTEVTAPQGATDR
Sequence of 5-hydroxytryptamine receptor 2B (P41595 whole entry): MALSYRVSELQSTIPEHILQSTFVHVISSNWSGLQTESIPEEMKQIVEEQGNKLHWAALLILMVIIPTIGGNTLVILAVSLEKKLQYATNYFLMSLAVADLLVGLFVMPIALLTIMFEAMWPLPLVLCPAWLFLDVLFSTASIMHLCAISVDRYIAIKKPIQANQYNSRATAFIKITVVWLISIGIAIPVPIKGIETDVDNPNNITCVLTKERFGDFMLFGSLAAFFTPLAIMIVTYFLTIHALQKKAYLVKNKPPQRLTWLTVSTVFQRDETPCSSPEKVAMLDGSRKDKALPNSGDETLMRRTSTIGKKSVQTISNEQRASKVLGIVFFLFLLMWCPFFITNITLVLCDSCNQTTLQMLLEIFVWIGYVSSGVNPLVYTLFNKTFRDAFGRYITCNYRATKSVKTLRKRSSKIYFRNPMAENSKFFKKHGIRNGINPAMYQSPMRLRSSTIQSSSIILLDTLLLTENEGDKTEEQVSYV
Sequence of Beta-1 adrenergic receptor (Homo sapiens) (P08588 whole entry, looked up): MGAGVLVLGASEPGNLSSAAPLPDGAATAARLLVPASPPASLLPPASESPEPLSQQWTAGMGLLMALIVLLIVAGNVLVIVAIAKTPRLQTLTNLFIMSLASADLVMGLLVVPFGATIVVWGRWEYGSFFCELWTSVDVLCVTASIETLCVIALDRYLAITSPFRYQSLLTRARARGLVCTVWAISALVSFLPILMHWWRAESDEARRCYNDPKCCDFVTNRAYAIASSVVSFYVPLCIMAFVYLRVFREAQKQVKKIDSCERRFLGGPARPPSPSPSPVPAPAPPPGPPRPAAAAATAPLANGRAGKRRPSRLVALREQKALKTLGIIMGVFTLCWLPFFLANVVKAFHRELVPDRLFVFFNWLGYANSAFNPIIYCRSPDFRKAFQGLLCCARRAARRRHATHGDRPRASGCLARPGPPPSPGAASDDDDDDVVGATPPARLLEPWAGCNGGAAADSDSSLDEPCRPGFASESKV
Sequence of Histamine H3 receptor (Homo sapiens) (Q9Y5N1 whole entry): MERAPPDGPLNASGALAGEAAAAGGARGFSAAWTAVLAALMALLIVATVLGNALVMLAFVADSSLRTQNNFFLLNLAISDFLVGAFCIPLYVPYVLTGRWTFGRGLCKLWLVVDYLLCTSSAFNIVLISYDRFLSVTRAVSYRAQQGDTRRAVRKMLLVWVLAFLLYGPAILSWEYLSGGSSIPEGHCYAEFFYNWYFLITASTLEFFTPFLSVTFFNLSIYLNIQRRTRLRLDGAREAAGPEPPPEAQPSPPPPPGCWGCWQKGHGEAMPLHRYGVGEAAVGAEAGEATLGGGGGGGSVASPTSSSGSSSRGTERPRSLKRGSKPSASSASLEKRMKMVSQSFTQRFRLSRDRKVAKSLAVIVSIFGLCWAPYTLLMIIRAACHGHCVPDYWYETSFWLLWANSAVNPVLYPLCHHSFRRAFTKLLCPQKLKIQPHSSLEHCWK

In the case of `CCCOc1ccc(-c2nn3c(C)cc(C)nc3c2CC(=O)N(CC)CC)cc1`, the inhibition in [1], in [2], in [3], in experiment [4], in [6] and in [7] was below 50% each time. The inhibition in experiment [8], in [9], in experiment [10], in experiment [11], in [12] and in [13] was below 50% each time. Moreover, the inhibition in experiment [14], in experiment [15] and in experiment [16] was below 50% in each case. In addition, the Ki in experiment [5] and in experiment [17] was above 10 µM throughout.
As to `C#CCOc1ccc(-c2nn3c(C)cc(C)nc3c2CC(=O)N(CC)CC)cc1`, the inhibition in experiment [1], in experiment [2], in experiment [3], in experiment [4], in [18] and in [6] was below 50% in each case. The inhibition in [7], in experiment [8], in [9], in [19], in [10] and in [11] was below 50% each time. Further, the inhibition in experiment [12], in experiment [13], in experiment [14], in experiment [15], in experiment [16] and in [20] was below 50% each time. For the same molecule, the Ki in experiment [17] was above 10 µM.
For the molecule `CCOc1ccc(-c2nn3c(C)cc(C)nc3c2CC(=O)N(CC)CC)cc1`, the inhibition in experiment [1], in [2], in experiment [3], in [4], in experiment [18] and in experiment [6] was below 50% in each case. Further, the inhibition in experiment [7], in [8], in experiment [9], in experiment [19], in [10] and in experiment [11] was below 50% each time. Besides, the inhibition in [12], in [13], in [14], in experiment [15], in experiment [16] and in experiment [20] was below 50% throughout. For the same molecule, the Ki in experiment [17] was above 10 µM.
With `CCCCOc1ccc(-c2nn3c(C)cc(C)nc3c2CC(=O)N(CC)CC)cc1`, the inhibition in experiment [1], in [2], in [3], in experiment [4], in experiment [6] and in [8] was below 50% throughout. The inhibition in [9], in experiment [10], in experiment [11], in experiment [12], in experiment [13] and in experiment [14] was below 50% in each case. The inhibition in [15], in experiment [16] and in experiment [20] was below 50% each time. Also, the inhibition constant Ki is above 10 µM in experiment [5] and 1.57 µM in [17].

The values are drawn from ChEMBL document CHEMBL1255512, “Pyrazolo[1,5-a]pyrimidine acetamides: 4-Phenyl alkyl ether derivatives as potent ligands for the 18 kDa translocator protein (TSPO)” (Bioorg Med Chem Lett, 2010).
